The numbers were not newly measured in article PMC12472391, “Borylated Five-Membered Ring Iminosugars: Synthesis, Spectroscopic Analysis, and Biological Evaluation for Glycosidase Inhibition and Anticancer Properties for Application in Boron Neutron Capture Therapy (BNCT)—Part 1” (Pharmaceuticals, 2025), which cites them from elsewhere.

Structures can show the parent of a compound that is named as a salt. Where two headings read alike, the source gives them in different places.

What all share (conditions): cited from earlier work
Data set [1] concerns the target β-D-galactosidase (E. coli) (Escherichia coli, UniProt P00722).
The subject of a further data set is aldose reductase. Also on record: method as in PMID 31557624.
A further data set deals with α-D-glucosidase. Also on record: method as in PMID 31557624.
Data set [2] concerns the target T1, α-D-mannosidase (Jack bean) (Canavalia ensiformis, UniProt C0HJB3).
T1 construct: purchased Sigma
T1 sequence (C0HJB3 1-981): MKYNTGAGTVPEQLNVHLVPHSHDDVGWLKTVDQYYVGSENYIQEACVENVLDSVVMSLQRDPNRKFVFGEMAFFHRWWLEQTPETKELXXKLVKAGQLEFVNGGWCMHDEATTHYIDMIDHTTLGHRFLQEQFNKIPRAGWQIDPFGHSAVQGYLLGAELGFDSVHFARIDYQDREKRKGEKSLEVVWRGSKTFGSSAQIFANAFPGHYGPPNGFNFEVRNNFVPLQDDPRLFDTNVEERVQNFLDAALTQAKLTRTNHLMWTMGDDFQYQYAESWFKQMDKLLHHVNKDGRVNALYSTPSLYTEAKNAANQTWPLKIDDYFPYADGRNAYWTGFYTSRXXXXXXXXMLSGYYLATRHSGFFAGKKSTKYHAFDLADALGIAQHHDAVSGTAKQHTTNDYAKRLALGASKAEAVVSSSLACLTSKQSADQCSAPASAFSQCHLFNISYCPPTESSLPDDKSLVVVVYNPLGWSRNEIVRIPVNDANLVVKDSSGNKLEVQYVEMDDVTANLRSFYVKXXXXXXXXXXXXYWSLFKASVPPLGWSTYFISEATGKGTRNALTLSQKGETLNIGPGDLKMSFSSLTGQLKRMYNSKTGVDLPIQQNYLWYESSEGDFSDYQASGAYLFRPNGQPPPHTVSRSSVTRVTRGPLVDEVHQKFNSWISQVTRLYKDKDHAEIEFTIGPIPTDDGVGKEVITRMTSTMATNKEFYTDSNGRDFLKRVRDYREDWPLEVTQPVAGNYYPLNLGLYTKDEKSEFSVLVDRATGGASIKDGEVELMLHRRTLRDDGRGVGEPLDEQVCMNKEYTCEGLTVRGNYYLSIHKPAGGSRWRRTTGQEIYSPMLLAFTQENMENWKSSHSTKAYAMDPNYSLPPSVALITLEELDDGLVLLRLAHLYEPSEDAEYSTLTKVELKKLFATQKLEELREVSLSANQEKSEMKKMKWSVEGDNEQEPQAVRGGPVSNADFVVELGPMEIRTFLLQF
Also on record: method as in PMID 31944194.

The subject of the next data set is β-D-glucosidase (almond). Also on record: method as in PMID 31944194.
Data set [3] relates to β-D-glucosidase (bovine liver). Set-up: method as in PMID 31944194.
Data set [4] concerns α-D-mannosidase (neutral). Set-up: method as in PMID 8457203.
Data set [5] concerns α-D-glucosidase (rat intestinal maltase). Also on record: method as in PMID 31944194.
Data set [6] addresses β-D-glucosidase (human lysosome) (Homo sapiens, UniProt P04062). Set-up: method as in PMID 31944194.
Data set [7] concerns α-L-rhamnosidase (P. decumbens). Also on record: method as in PMID 31944194.
Data set [8] has as its system α-L-fucosidase (bovine kidney). Set-up: method as in PMID 31944194.
For data set [9], the system named is trehalase (porcine kidney). Set-up: method as in PMID 31944194.
The test system of a further data set is β-D-mannosidase (snail). Set-up: method as in PMID 31944194.
Data set [10] concerns α-D-mannosidase (lysosomal acidic). Set-up: method as in PMID 8457203.
The subject of data set [11] is amyloglucosidase (A. niger). Also on record: method as in PMID 31944194.
Data set [12] concerns the target fruit fly lysosomal acidic α-D-mannosidase. Set-up: method as in PMID 29323461.
For data set [13], the target named is fruit fly Golgi II α-D-mannosidase. Set-up: method as in PMID 29323461.
Data set [14] deals with T2, β-D-glucuronidase (E. coli) (Escherichia coli, UniProt P05804).
T2 construct: purchased Sigma-Aldrich Co
T2 sequence (P05804 whole entry): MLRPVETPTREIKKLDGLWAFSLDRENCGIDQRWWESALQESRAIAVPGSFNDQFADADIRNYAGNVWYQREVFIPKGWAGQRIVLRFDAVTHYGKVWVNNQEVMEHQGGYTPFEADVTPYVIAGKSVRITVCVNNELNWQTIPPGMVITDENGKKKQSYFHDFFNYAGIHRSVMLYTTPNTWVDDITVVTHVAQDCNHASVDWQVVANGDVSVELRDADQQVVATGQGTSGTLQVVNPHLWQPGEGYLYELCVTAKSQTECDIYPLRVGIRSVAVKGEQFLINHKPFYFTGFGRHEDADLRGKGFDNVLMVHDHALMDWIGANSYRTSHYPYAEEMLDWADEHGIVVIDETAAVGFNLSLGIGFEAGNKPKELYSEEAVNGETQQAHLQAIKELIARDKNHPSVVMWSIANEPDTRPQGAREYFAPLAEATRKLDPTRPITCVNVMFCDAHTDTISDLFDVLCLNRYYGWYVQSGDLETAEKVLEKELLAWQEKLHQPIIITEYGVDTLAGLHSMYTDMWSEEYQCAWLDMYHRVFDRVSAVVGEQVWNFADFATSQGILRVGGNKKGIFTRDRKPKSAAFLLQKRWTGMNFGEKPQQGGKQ
Set-up: method as in PMID 31944194.

Data set [15] deals with α-D-mannosidase (Golgi II). Also on record: method as in PMID 8457203.
For data set [16], the target named is T3, β-D-galactosidase (bovine liver) (Bos taurus, UniProt Q58D55).
T3 sequence (Q58D55 28-653): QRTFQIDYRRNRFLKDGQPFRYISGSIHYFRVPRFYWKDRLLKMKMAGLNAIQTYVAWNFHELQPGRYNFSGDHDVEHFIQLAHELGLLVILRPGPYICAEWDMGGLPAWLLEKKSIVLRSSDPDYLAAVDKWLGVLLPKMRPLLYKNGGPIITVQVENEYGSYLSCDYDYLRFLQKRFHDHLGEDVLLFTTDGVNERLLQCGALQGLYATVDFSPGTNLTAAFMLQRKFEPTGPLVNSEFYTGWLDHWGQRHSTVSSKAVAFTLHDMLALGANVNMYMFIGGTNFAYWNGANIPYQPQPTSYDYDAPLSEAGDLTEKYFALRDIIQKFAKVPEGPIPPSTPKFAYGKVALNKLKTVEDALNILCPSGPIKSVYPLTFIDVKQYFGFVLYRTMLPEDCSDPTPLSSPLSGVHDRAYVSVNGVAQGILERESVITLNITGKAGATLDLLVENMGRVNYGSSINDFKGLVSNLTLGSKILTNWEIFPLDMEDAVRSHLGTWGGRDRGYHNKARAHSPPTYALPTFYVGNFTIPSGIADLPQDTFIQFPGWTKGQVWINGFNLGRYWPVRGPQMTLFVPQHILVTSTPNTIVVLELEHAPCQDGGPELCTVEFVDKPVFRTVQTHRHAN
Also on record: method as in PMID 31944194.

The next data set addresses T4, α-D-glucosidase (yeast) (Saccharomyces cerevisiae, UniProt P53341).
T4 construct: purchased Sigma
Set-up: method as in PMID 31944194.

Data set [17] concerns α-D-galactosidase (coffee bean). Also on record: method as in PMID 31944194.
The next data set deals with α-D-glucosidase (rice) (Oryza sativa subsp. japonica, UniProt Q653V7). Also on record: method as in PMID 31944194.
Sequence of α-D-glucosidase (rice) (Q653V7 34-885): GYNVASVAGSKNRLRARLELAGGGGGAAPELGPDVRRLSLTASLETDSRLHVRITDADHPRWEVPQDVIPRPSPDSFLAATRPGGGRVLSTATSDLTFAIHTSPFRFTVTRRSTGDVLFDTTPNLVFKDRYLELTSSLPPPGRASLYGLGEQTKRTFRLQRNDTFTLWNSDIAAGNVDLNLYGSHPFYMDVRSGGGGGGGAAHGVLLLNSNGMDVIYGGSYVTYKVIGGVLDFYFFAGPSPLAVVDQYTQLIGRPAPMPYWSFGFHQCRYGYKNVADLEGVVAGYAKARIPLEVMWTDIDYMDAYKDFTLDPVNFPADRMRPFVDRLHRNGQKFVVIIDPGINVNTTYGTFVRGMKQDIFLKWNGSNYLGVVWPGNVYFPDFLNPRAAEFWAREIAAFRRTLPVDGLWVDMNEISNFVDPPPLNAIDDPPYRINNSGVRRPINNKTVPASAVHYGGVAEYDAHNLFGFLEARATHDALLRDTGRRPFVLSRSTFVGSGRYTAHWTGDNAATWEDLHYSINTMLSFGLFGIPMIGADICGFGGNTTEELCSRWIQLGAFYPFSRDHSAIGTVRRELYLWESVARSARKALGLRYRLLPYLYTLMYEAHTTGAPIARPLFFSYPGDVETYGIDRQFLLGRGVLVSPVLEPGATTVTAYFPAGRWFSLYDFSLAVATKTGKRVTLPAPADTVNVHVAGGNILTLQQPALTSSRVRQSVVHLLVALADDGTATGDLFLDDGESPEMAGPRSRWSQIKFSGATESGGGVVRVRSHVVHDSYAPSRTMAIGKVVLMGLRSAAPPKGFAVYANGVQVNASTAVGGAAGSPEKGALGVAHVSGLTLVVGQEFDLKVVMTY
In data set [18] the test system is α-D-mannosidase (Golgi II). Set-up: method as in PMID 2706004.
The next data set deals with α-L-fucosidase. Also on record: method as in PMID 2706004.
Data set [19] has as its system β-D-N-acetylhexosaminidase. Set-up: method as in PMID 2706004.
Another data set deals with β-D-mannosidase. Set-up: method as in PMID 2706004.
The subject of data set [20] is α-D-mannosidase (lysosomal acidic). Set-up: method as in PMID 2706004.
Data set [21] deals with T1, α-D-mannosidase (Jack bean).
The subject of data set [22] is α-D-galactosidase (coffee bean).

Sequence of β-D-galactosidase (E. coli) (P00722 2-1024): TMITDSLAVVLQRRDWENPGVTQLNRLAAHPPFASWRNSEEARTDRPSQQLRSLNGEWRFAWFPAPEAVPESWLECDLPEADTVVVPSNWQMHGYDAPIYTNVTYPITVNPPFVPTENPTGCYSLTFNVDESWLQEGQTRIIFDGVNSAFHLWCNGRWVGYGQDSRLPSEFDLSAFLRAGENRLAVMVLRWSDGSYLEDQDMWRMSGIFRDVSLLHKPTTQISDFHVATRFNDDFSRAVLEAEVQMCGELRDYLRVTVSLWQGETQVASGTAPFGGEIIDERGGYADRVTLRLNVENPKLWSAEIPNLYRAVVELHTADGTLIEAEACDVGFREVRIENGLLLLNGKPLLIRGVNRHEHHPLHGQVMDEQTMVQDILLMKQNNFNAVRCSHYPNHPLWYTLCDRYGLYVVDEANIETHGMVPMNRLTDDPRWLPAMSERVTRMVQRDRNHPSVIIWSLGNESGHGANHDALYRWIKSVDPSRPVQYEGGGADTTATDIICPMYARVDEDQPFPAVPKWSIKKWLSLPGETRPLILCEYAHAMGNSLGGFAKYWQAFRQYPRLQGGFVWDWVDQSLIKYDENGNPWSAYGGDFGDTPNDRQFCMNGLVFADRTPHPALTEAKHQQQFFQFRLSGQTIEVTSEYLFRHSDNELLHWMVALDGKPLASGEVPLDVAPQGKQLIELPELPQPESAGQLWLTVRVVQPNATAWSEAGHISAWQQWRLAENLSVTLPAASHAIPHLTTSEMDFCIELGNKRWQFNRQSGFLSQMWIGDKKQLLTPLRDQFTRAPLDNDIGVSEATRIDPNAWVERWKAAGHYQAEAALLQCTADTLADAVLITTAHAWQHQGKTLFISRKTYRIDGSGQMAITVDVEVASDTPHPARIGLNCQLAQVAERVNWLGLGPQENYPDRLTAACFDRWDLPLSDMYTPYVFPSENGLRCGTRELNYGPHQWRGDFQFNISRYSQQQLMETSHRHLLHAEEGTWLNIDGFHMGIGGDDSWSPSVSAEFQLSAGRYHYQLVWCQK
Sequence of β-D-glucosidase (human lysosome) (P04062 40-536): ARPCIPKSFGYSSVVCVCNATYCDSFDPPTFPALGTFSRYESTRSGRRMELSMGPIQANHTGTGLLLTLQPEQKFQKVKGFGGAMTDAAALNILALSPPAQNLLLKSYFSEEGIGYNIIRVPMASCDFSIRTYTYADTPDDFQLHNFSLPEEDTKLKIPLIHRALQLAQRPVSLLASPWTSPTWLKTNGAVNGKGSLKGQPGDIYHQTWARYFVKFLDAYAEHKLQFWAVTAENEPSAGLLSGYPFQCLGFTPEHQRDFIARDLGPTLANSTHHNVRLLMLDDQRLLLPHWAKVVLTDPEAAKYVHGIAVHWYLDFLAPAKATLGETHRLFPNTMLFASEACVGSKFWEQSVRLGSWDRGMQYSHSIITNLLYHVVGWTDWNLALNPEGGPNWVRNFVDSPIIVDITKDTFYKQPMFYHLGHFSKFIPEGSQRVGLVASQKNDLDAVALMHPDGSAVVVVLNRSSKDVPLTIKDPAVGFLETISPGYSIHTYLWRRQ
T4 sequence (P53341 whole entry): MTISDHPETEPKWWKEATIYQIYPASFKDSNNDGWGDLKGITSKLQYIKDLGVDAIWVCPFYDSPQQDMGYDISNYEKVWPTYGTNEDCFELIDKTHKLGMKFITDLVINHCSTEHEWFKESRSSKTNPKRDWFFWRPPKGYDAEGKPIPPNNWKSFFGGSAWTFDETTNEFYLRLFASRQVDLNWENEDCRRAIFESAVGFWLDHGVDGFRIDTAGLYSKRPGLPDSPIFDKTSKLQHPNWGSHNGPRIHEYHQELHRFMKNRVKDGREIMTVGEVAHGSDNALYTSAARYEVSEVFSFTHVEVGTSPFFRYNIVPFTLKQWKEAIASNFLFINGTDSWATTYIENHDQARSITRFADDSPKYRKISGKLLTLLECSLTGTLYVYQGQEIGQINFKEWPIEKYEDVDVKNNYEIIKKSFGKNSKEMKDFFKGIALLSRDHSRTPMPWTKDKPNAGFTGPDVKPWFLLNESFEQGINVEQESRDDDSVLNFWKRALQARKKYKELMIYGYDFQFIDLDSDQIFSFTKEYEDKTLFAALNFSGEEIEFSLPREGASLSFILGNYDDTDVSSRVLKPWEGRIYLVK

`Cl.OC[C@@H](O)[C@H]1[C@H](O)[C@H](O)CN1Cc1ccccc1B(O)O` [N-(2-Methylphenylboronic acid)-1,4-dideoxy-1,4-imino-D-talitol.HCl]: in data set [1], the “β-D-galactosidase (E. coli) inhibition” value is given as “β-D-galactosidase (E. coli) (44–55%)”.
Consider `OC[C@@H](O)[C@H]1[C@H](O)[C@@H](O)CN1Cc1ccccc1` [N-Benzyl-1,4-dideoxy-1,4-imino-D-galactitol], for which the aldose reductase inhibition in the data set on aldose reductase is on record as 32.6%. Moreover, the α-D-glucosidase inhibition with α-D-glucosidase was 93.2%. Also, the IC50 on α-D-glucosidase (read-out: IC50 towards α-D-glucosidase) is 40.6 µM.
As to `OC[C@@H](O)[C@@H]1[C@H](O)[C@H](O)CN1Cc1ccccc1` [N-Benzyl-1,4-dideoxy-1,4-imino-D-mannitol.HCl], the “α-D-mannosidase (Jack bean) inhibition” value in [2] is recorded as 27%. For the same molecule, the “β-D-glucosidase (almond) inhibition” value in the data set on β-D-glucosidase (almond) is 6.1%. Further, in data set [3], the “β-D-glucosidase (bovine liver) inhibition” value is on record as 9.5%. Also, the α-D-mannosidase neutral inhibition in [4] is on record as 44%. In [5], the “α-D-glucosidase (rat intestinal maltase) inhibition” value is on record as 16.6%. Besides, the “β-D-glucosidase (human lysosome) inhibition” value in data set [6] is given as 4.7%. In addition, in [7], the “α-L-rhamnosidase (P. decumbens) inhibition” value is reported as 11.5%. In addition, the “α-L-fucosidase (bovine kidney) inhibition” value in data set [8] is given as 8.4%. Also, in data set [9], the “trehalase (porcine kidney) inhibition” value is 0%. The “β-D-mannosidase (snail) inhibition” value in the data set on β-D-mannosidase (snail) is reported as 4.4%. Also, the “α-D-mannosidase lysosomal acidic inhibition” value in data set [10] is on record as 34%. Also, the “amyloglucosidase (A. niger) inhibition” value in data set [11] was 11.4%. Further, the IC50 was 1500 µM in [12] and 690 µM in [13]. For the same molecule, the “β-D-glucuronidase (E. coli) inhibition” value in data set [14] was 9.8%. The “α-D-mannosidase Golgi II inhibition” value in data set [15] is listed as 72%. Moreover, the “β-D-galactosidase (bovine liver) inhibition” value in [16] was 7.9%. Besides, on α-D-glucosidase (yeast), the “α-D-glucosidase (yeast) inhibition” value was 6.5%. Also, the “α-D-galactosidase (coffee bean) inhibition” value in [17] is 8.8%. Moreover, the “α-D-glucosidase (rice) inhibition” value on α-D-glucosidase (rice) is on record as 34.2%.
Regarding `OC[C@@H](O)[C@@H]1[C@@H](O)[C@@H](O)CN1Cc1ccccc1` [N-Benzyl-1,4-dideoxy-1,4-imino-D-allitol], in data set [18], the “α-D-mannosidase Golgi II inhibition” value is on record as 11%. In addition, the α-L-fucosidase inhibition entry in the data set on α-L-fucosidase was “α-L-fucosidase (76%)”. The β-D-N-acetylhexosaminidase inhibition in data set [19] is given as 35%. In addition, the β-D-mannosidase inhibition with β-D-mannosidase was 0%. The “α-D-mannosidase lysosomal acidic inhibition” value in data set [20] is on record as 7%.
On to `OC[C@@H](O)[C@H]1[C@H](O)[C@H](O)CN1Cc1ccccc1` [N-Benzyl-1,4-dideoxy-1,4-imino-D-talitol.HCl], for which the “α-D-mannosidase (Jack bean) inhibition” value in data set [21] was “little inhibition”. In data set [1], the “β-D-galactosidase (E. coli) inhibition” value is listed as “little inhibition”. The “α-D-galactosidase (coffee bean) inhibition” value in [22] was “little inhibition”.
